Results on 48 molecules are retold here after patent US20060252807A1, “Novel ortho-terphenyl inhibitors of p38 kinase and methods of treating inflammatory disorders” (Kalypsys, Inc., priority 2005, published 2006).

A word on the IC50: it is the point on the concentration scale where inhibition reaches its midpoint. A low value points to higher potency.

Molecules are shown by their SMILES. Bounds are passed on as bounds.

In the assay the target is T1, active p38 alpha enzyme (Upstate Biotechnology) (Homo sapiens, UniProt Q16539).
T1 construct: purchased Upstate Biotechnology
T1 sequence (Q16539 whole entry): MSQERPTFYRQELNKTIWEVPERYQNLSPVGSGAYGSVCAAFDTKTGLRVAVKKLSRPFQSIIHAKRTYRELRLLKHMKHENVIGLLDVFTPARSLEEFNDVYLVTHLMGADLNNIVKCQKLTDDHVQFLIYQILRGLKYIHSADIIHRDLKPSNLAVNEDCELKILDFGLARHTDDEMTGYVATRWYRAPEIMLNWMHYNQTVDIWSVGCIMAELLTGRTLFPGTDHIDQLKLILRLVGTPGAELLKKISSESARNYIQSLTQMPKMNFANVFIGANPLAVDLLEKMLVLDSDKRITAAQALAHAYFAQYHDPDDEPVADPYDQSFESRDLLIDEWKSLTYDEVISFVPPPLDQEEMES
Kind of assay: p38α biochemical assay (ATP turnover, luminescent detection, Cambrex PKlight). Particulars: p38α kinase; Table 1 Biological Activity. Summed up: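 Active p38α phosphorylates MapkapK2 whole protein with 1.4 uM final ATP, 2 h at 30C, in Tris/MOPS buffer with MgCl2, CaCl2, EGTA, EDTA, glycerol, β-mercaptoethanol and 1 mg/ml BSA. Compounds pin-delivered from DMSO; total ATP turnover read by luminescence after PKlight addition.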
As for `Cc1cccc(CNC(=O)c2csc(-c3c(-c4ccc(F)cc4)n[nH]c3C3CCNCC3)n2)c1` [Example 2073], the IC50 was > 1000 nM. On to `C[C@H](NC(=O)c1csc(-c2c(-c3ccc(F)cc3)n[nH]c2C2CCNCC2)n1)c1ccccc1` [Example 2074], for which the IC50 is > 1000 nM. Take `C[C@@H](NC(=O)c1csc(-c2c(-c3ccc(F)cc3)n[nH]c2C2CCNCC2)n1)c1ccccc1` [Example 2075]: the half-maximal inhibitory concentration (IC50) was > 1000 nM. Consider `O=C(NCCc1ccccc1)c1csc(-c2c(-c3ccc(F)cc3)n[nH]c2C2CCNCC2)n1` [Example 2076], for which the IC50 was > 1000 nM.

With `Cc1ccccc1CNC(=O)c1csc(-c2c(-c3ccc(F)cc3)n[nH]c2C2CCNCC2)n1` [Example 2077], the IC50 was > 1000 nM.

As for `Cc1ccc(CNC(=O)c2csc(-c3c(-c4ccc(F)cc4)n[nH]c3C3CCNCC3)n2)cc1` [Example 2078], the IC50 was > 1000 nM. For `Cc1cnc(CNC(=O)c2csc(-c3c(-c4ccc(F)cc4)n[nH]c3C3CCNCC3)n2)cn1` [Example 2079], the IC50 is > 1000 nM. Turning to `O=C(NCc1cccc(F)c1)c1csc(-c2c(-c3ccc(F)cc3)n[nH]c2C2CCNCC2)n1` [Example 2080], the IC50 was > 1000 nM. For `O=C(NCc1ccc(F)cc1)c1csc(-c2c(-c3ccc(F)cc3)n[nH]c2C2CCNCC2)n1` [Example 2081] the value was > 1000 nM; for `O=C(NCc1ccccc1F)c1csc(-c2c(-c3ccc(F)cc3)n[nH]c2C2CCNCC2)n1` [Example 2082], ≤ 1000 nM; for `O=C(NCCCn1ccnc1)c1csc(-c2c(-c3ccc(F)cc3)n[nH]c2C2CCNCC2)n1` [Example 2083], > 1000 nM. `CN1CCCC1CCNC(=O)c1csc(-c2c(-c3ccc(F)cc3)n[nH]c2C2CCNCC2)n1` (stereo not drawn) [Example 2084]: the half-maximal inhibitory concentration (IC50) is > 1000 nM. As to `O=C(NCCN1CCCCC1)c1csc(-c2c(-c3ccc(F)cc3)n[nH]c2C2CCNCC2)n1` [Example 2085], the IC50 was > 1000 nM. With `CC(C)CCCC(C)NC(=O)c1csc(-c2c(-c3ccc(F)cc3)n[nH]c2C2CCNCC2)n1` (stereo not drawn) [Example 2086], the IC50 is > 1000 nM. For `O=C(NCCN1CCOCC1)c1csc(-c2c(-c3ccc(F)cc3)n[nH]c2C2CCNCC2)n1` [Example 2087] the value was > 1000 nM; for `CCOC(=O)CC(C)NC(=O)c1csc(-c2c(-c3ccc(F)cc3)n[nH]c2C2CCNCC2)n1` (stereo not drawn) [Example 2088], > 1000 nM; for `O=C(NC1CCc2ccccc21)c1csc(-c2c(-c3ccc(F)cc3)n[nH]c2C2CCNCC2)n1` (stereo not drawn) [Example 2089], > 1000 nM.

`Cc1ccc(CCNC(=O)c2csc(-c3c(-c4ccc(F)cc4)n[nH]c3C3CCNCC3)n2)cc1` [Example 2090]: the IC50 is > 1000 nM. Regarding `Cc1ccc(C)c(CNC(=O)c2csc(-c3c(-c4ccc(F)cc4)n[nH]c3C3CCNCC3)n2)c1` [Example 2091], the IC50 is > 1000 nM.

As to `Cc1ccc([C@H](C)NC(=O)c2csc(-c3c(-c4ccc(F)cc4)n[nH]c3C3CCNCC3)n2)cc1` [Example 2092], the IC50 is > 1000 nM. For `Cc1ccc([C@@H](C)NC(=O)c2csc(-c3c(-c4ccc(F)cc4)n[nH]c3C3CCNCC3)n2)cc1` [Example 2093] the value was > 1000 nM; for `CC(CNC(=O)c1csc(-c2c(-c3ccc(F)cc3)n[nH]c2C2CCNCC2)n1)c1ccccc1` (stereo not drawn) [Example 2094], > 1000 nM. As for `CC(CNC(=O)c1csc(-c2c(-c3ccc(F)cc3)n[nH]c2C2CCNCC2)n1)c1ccccc1` (stereo not drawn) [Example 2095], the half-maximal inhibitory concentration (IC50) is > 1000 nM.

For `O=C(NCCCc1ccccc1)c1csc(-c2c(-c3ccc(F)cc3)n[nH]c2C2CCNCC2)n1` [Example 2096], the IC50 was > 1000 nM. `Cc1ccc(CNC(=O)c2csc(-c3c(-c4ccc(F)cc4)n[nH]c3C3CCNCC3)n2)cc1C` [Example 2097]: the IC50 was > 1000 nM. In the case of `CC(Cc1ccncc1)NC(=O)c1csc(-c2c(-c3ccc(F)cc3)n[nH]c2C2CCNCC2)n1` (stereo not drawn) [Example 2098], the IC50 was > 1000 nM. In the case of `O=C(NCCc1ccc(O)cc1)c1csc(-c2c(-c3ccc(F)cc3)n[nH]c2C2CCNCC2)n1` [Example 2099], the IC50 was > 1000 nM. For `O=C(NCCOc1ccccc1)c1csc(-c2c(-c3ccc(F)cc3)n[nH]c2C2CCNCC2)n1` [Example 2100], the half-inhibitory concentration (IC50) was > 1000 nM. In the case of `COc1ccccc1CNC(=O)c1csc(-c2c(-c3ccc(F)cc3)n[nH]c2C2CCNCC2)n1` [Example 2101], the IC50 is > 1000 nM. `COc1ccc(CNC(=O)c2csc(-c3c(-c4ccc(F)cc4)n[nH]c3C3CCNCC3)n2)cc1` [Example 2102]: the IC50 was ≤ 1000 nM. As to `COc1cccc(CNC(=O)c2csc(-c3c(-c4ccc(F)cc4)n[nH]c3C3CCNCC3)n2)c1` [Example 2103], the IC50 is > 1000 nM. For the molecule `O=C(NCCc1ccc(F)cc1)c1csc(-c2c(-c3ccc(F)cc3)n[nH]c2C2CCNCC2)n1` [Example 2104], the IC50 is > 1000 nM. In the case of `O=C(NCCc1ccccc1F)c1csc(-c2c(-c3ccc(F)cc3)n[nH]c2C2CCNCC2)n1` [Example 2105] it was > 1000 nM; in that of `O=C(NCCc1cccc(F)c1)c1csc(-c2c(-c3ccc(F)cc3)n[nH]c2C2CCNCC2)n1` [Example 2106], > 1000 nM; in that of `O=C(NCc1cccc(Cl)c1)c1csc(-c2c(-c3ccc(F)cc3)n[nH]c2C2CCNCC2)n1` [Example 2107], > 1000 nM. Turning to `O=C(NCc1ccccc1Cl)c1csc(-c2c(-c3ccc(F)cc3)n[nH]c2C2CCNCC2)n1` [Example 2108], the half-inhibitory concentration (IC50) is > 1000 nM.

As to `O=C(NCc1ccc(Cl)cc1)c1csc(-c2c(-c3ccc(F)cc3)n[nH]c2C2CCNCC2)n1` [Example 2109], the half-inhibitory concentration (IC50) was > 1000 nM. Consider `O=C(NCCCN1CCCC1=O)c1csc(-c2c(-c3ccc(F)cc3)n[nH]c2C2CCNCC2)n1` [Example 2110], for which the IC50 was > 1000 nM.

Consider `O=C(NCc1ccc(F)cc1F)c1csc(-c2c(-c3ccc(F)cc3)n[nH]c2C2CCNCC2)n1` [Example 2111], for which the IC50 is > 1000 nM. Take `O=C(NCc1ccc(F)c(F)c1)c1csc(-c2c(-c3ccc(F)cc3)n[nH]c2C2CCNCC2)n1` [Example 2112]: the IC50 is > 1000 nM. On to `O=C(NCc1cc(F)cc(F)c1)c1csc(-c2c(-c3ccc(F)cc3)n[nH]c2C2CCNCC2)n1` [Example 2113], for which the IC50 is > 1000 nM.

On to `O=C(NCCCN1CCOCC1)c1csc(-c2c(-c3ccc(F)cc3)n[nH]c2C2CCNCC2)n1` [Example 2114], for which the IC50 was > 1000 nM. In the case of `CC(C)N(CCNC(=O)c1csc(-c2c(-c3ccc(F)cc3)n[nH]c2C2CCNCC2)n1)C(C)C` [Example 2115], the IC50 was > 1000 nM.

As to `O=C(NC1CCCc2ccccc21)c1csc(-c2c(-c3ccc(F)cc3)n[nH]c2C2CCNCC2)n1` (stereo not drawn) [Example 2116], the IC50 was > 1000 nM. In the case of `CC(CCc1ccccc1)NC(=O)c1csc(-c2c(-c3ccc(F)cc3)n[nH]c2C2CCNCC2)n1` (stereo not drawn) [Example 2117], the IC50 is > 1000 nM. Take `CC(C)c1ccc(CNC(=O)c2csc(-c3c(-c4ccc(F)cc4)n[nH]c3C3CCNCC3)n2)cc1` [Example 2118]: the 50% inhibitory concentration (IC50) was > 1000 nM. For the molecule `O=C(NCc1ccc2c(c1)OCO2)c1csc(-c2c(-c3ccc(F)cc3)n[nH]c2C2CCNCC2)n1` [Example 2119], the IC50 is > 1000 nM. Turning to `COc1cccc(CCNC(=O)c2csc(-c3c(-c4ccc(F)cc4)n[nH]c3C3CCNCC3)n2)c1` [Example 2120], the IC50 is > 1000 nM.
